Measurements published in patent publication US12077503B2, “Substituted cyclic amides and their use as herbicides” (FMC CORPORATION, priority 2015, dated 2024).

Assays:
Format in all cases: in vivo
Kochia (Kochia scoparia) [1] = assay: Test A preemergence; conditions: Bassia scoparia, pre-emergence, 240 h, 0 to 100 scale where 0 is no effect and 100 is complete control, read-out: Kochia plant response rating
How it was run: (§1)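 Preemergence directed soil spray on seeded pots, or postemergence application to plants 2–10 cm, one- to two-leaf. Solvent mixture non-phytotoxic, with surfactant. Scored ~10 d later, visually, 0–100 vs untreated.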

[2] = tested on: giant foxtail (Setaria faberii); assay: Test A preemergence; conditions: Setaria faberi, pre-emergence, 240 h, 0 to 100 scale where 0 is no effect and 100 is complete control, read-out: Foxtail, Giant plant response rating
How it was run: as §1

[3] = tested on: barnyardgrass (Echinochloa crus-galli); assay: Test A preemergence; conditions: Echinochloa crus-galli, pre-emergence, 240 h, 0 to 100 scale where 0 is no effect and 100 is complete control, read-out: Barnyardgrass plant response rating
How it was run: as §1

[4] = tested on: ryegrass, Italian (Italian ryegrass, Lolium multiflorum); assay: Test A preemergence; conditions: Lolium multiflorum, pre-emergence, 240 h, 0 to 100 scale where 0 is no effect and 100 is complete control, read-out: Ryegrass, Italian plant response rating
How it was run: as §1

[5] = tested on: ragweed (common ragweed, Ambrosia elatior); assay: Test A preemergence; conditions: Ambrosia artemisiifolia, pre-emergence, 240 h, 0 to 100 scale where 0 is no effect and 100 is complete control, read-out: Ragweed plant response rating
How it was run: as §1

[6] = tested on: pigweed (Amaranthus retroflexus); assay: Test A preemergence; conditions: Amaranthus retroflexus, pre-emergence, 240 h, 0 to 100 scale where 0 is no effect and 100 is complete control, read-out: Pigweed plant response rating
[7] = tested on: ducksalad (Heteranthera limosa); assay: Test B flooded paddy test; conditions: Heteranthera limosa, 250 g ai/ha, Flood; 0 to 100 scale where 0 is no effect and 100 is complete control; read-out: Ducksalad plant response rating
How it was run: (§2)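 Evaluation by eye, against controls, occurred 13–15 d post-treatment in a greenhouse, using a 0 (no effect) to 100 (complete control) scale. Application was into the paddy water, 3 cm deep over the soil, on 2-leaf plants.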

rice (Oryra sativa) = assay: Test B flooded paddy test; conditions: Oryza sativa, 250 g ai/ha, Flood; 0 to 100 scale where 0 is no effect and 100 is complete control; read-out: Rice plant response rating
How it was run: as §2

[8] = tested on: sedge, umbrella (small-flower umbrella sedge, Cyperus difformis); assay: Test B flooded paddy test; conditions: Cyperus difformis, 250 g ai/ha, Flood; 0 to 100 scale where 0 is no effect and 100 is complete control; read-out: Sedge, Umbrella plant response rating
How it was run: as §2

[9] = tested on: barnyardgrass (Echinochloa crus-galli); assay: Test B flooded paddy test; conditions: Echinochloa crus-galli, 250 g ai/ha, Flood; 0 to 100 scale where 0 is no effect and 100 is complete control; read-out: Barnyardgrass plant response rating
How it was run: as §2

Kochia (Kochia scoparia) [10] = assay: Test A postemergence; conditions: Bassia scoparia, post-emergence, 240 h
How it was run: as §1

[11] = tested on: giant foxtail (Setaria faberii); assay: Test A postemergence; conditions: Setaria faberi, post-emergence, 240 h
How it was run: as §1

[12] = tested on: barnyardgrass (Echinochloa crus-galli); assay: Test A postemergence; conditions: Echinochloa crus-galli, post-emergence, 240 h
How it was run: as §1

[13] = tested on: blackgrass (Alopecurus myosuroides); assay: Test A postemergence; conditions: Alopecurus myosuroides, post-emergence, 240 h
How it was run: as §1

[14] = tested on: ryegrass, Italian (Italian ryegrass, Lolium multiflorum); assay: Test A postemergence; conditions: Lolium multiflorum, post-emergence, 240 h, 125 g ai/ha, postemergence, visual injury vs untreated controls after approx. 10 d; 0 = no effect, 100 = complete control; read-out: Ryegrass, Italian plant response rating (0 to 100 scale)
How it was run: as §1

[15] = tested on: wheat (Triticum aestivum); assay: Test A postemergence; conditions: Triticum aestivum, post-emergence, 240 h, 125 g ai/ha, postemergence, visual injury vs untreated controls after approx. 10 d; 0 = no effect, 100 = complete control; read-out: Wheat plant response rating (0 to 100 scale)
How it was run: as §1

[16] = tested on: ragweed (common ragweed, Ambrosia elatior); assay: Test A postemergence; conditions: Ambrosia artemisiifolia, post-emergence, 240 h, 125 g ai/ha, postemergence, visual injury vs untreated controls after approx. 10 d; 0 = no effect, 100 = complete control; read-out: Ragweed plant response rating (0 to 100 scale)
How it was run: as §1

[17] = tested on: pigweed (Amaranthus retroflexus); assay: Test A postemergence; conditions: Amaranthus retroflexus, post-emergence, 240 h, 125 g ai/ha, postemergence, visual injury vs untreated controls after approx. 10 d; 0 = no effect, 100 = complete control; read-out: Pigweed plant response rating (0 to 100 scale)
How it was run: as §1

corn (Zea mays) = assay: Test A postemergence; conditions: Zea mays, post-emergence, 240 h
How it was run: as §1

[18] = tested on: Galium (catchweed bedstraw, Galium aparine); assay: Test A postemergence; conditions: Galium, post-emergence, 240 h
How it was run: as §1

[19] = 125 g ai/ha, preemergence, visual injury rating, approximately 10 d

SMILES: COc1ccc(C(F)(F)F)cc1[C@H]1CN(C)C(=O)[C@@H]1C(=O)Nc1ccccc1F [Compound 1183]
- pest or weed control at 31 g/ha (Kochia (Kochia scoparia) [1]; 31 g ai/ha, Preemergence): 0%
- pest or weed control at 125 g/ha (Kochia (Kochia scoparia) [1]; [19]): 0%
- pest or weed control at 31 g/ha ([2]; 31 g ai/ha, Preemergence): 80%
- pest or weed control at 125 g/ha [2, 19]: 90%
- pest or weed control at 31 g/ha ([3]; 31 g ai/ha, Preemergence): 90%
- pest or weed control at 125 g/ha [3, 19]: 90%
- pest or weed control at 31 g/ha ([4]; 31 g ai/ha, Preemergence): 20%
- pest or weed control at 125 g/ha [4, 19]: 50%
- pest or weed control at 31 g/ha ([5]; 31 g ai/ha, Preemergence): 0%
- pest or weed control at 125 g/ha [5, 19]: 0%
- pest or weed control at 31 g/ha ([6]; 31 g ai/ha, Preemergence): 0%
- pest or weed control at 125 g/ha [6, 19]: 0%
- pest or weed control at 250 g/ha [7]: 95%
- pest or weed control at 250 g/ha (rice (Oryra sativa)): 10%
- pest or weed control at 250 g/ha [8]: 0%
- pest or weed control at 250 g/ha [9]: 95%
- pest or weed control at 125 g/ha (Kochia (Kochia scoparia) [10]; 125 g ai/ha, postemergence, visual injury vs untreated controls after approx. 10 d, 0 = no effect, 100 = complete control, read-out: Kochia plant response rating (0 to 100 scale)): 0%
- pest or weed control at 31 g/ha (Kochia (Kochia scoparia) [10]; Postemergence, 31 g ai/ha, visual injury after approx. 10 d, 0 to 100 scale, 0 no effect, 100 complete control, read-out: Plant response rating, Kochia): 0%
- pest or weed control at 125 g/ha ([11]; 125 g ai/ha, postemergence, visual injury vs untreated controls after approx. 10 d, 0 = no effect, 100 = complete control, read-out: Foxtail, Giant plant response rating (0 to 100 scale)): 80%
- pest or weed control at 31 g/ha ([11]; Postemergence, 31 g ai/ha, visual injury after approx. 10 d, 0 to 100 scale, 0 no effect, 100 complete control, read-out: Plant response rating, Foxtail, Giant): 70%
- pest or weed control at 125 g/ha ([12]; 125 g ai/ha, postemergence, visual injury vs untreated controls after approx. 10 d, 0 = no effect, 100 = complete control, read-out: Barnyardgrass plant response rating (0 to 100 scale)): 90%
- pest or weed control at 31 g/ha ([12]; Postemergence, 31 g ai/ha, visual injury after approx. 10 d, 0 to 100 scale, 0 no effect, 100 complete control, read-out: Plant response rating, Barnyardgrass): 80%
- pest or weed control at 125 g/ha ([13]; 125 g ai/ha, postemergence, visual injury vs untreated controls after approx. 10 d, 0 = no effect, 100 = complete control, read-out: Blackgrass plant response rating (0 to 100 scale)): 50%
- pest or weed control at 31 g/ha ([13]; Postemergence, 31 g ai/ha, visual injury after approx. 10 d, 0 to 100 scale, 0 no effect, 100 complete control, read-out: Plant response rating, Blackgrass): 0%
- pest or weed control at 125 g/ha [14]: 50%
- plant injury at 125 g/ha [15]: 50%
- pest or weed control at 125 g/ha [16]: 0%
- pest or weed control at 125 g/ha [17]: 0%
- plant injury at 125 g/ha (corn (Zea mays); 125 g ai/ha, postemergence, visual injury vs untreated controls after approx. 10 d, 0 = no effect, 100 = complete control, read-out: Corn plant response rating (0 to 100 scale)): 60%
- Corn plant response rating (crop injury, 0 = no effect, 100 = complete kill) at 31 g/ha (corn (Zea mays); Postemergence, 31 g ai/ha, visual injury after approx. 10 d, 0 to 100 scale, 0 no effect, 100 complete control): 30%
- pest or weed control at 125 g/ha ([18]; 125 g ai/ha, postemergence, visual injury vs untreated controls after approx. 10 d, 0 = no effect, 100 = complete control, read-out: Galium plant response rating (0 to 100 scale)): 0%
- pest or weed control at 31 g/ha ([18]; Postemergence, 31 g ai/ha, visual injury after approx. 10 d, 0 to 100 scale, 0 no effect, 100 complete control, read-out: Plant response rating, Galium): 0%
